The values that follow come from US5571942A, “Ring-substituted 2-amino-1,2,3,4-tetrahydronaphthalenes and 3-aminochromanes” (Eli Lilly and Company, priority 1995, dated 1996).

Holding throughout (parameters): species or system rat (male Sprague-Dawley)
For test [1], the target named is T1, 5-HT1A receptors (Rattus norvegicus, UniProt P19327).
T1 construct: from tissue; host or cells: cerebral cortex (crude synaptosomal membranes) of male Sprague-Dawley rats
T1 sequence (P19327 1-422): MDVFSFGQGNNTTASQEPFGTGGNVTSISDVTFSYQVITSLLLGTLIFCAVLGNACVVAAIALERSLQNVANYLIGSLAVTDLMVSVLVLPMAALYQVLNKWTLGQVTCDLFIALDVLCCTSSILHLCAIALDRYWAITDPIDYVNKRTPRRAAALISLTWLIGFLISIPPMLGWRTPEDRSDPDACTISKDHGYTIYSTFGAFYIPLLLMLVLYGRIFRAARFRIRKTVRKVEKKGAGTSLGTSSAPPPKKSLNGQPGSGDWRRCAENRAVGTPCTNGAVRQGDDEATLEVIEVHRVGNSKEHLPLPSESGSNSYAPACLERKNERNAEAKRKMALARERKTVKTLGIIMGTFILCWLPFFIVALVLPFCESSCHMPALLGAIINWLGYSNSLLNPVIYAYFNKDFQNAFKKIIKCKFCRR
In words: in vivo lowering of brain 5-HIAA levels (5-HT1A agonist activity). The settings on record: one hour after treatment. How it is done: (§1) Compounds of this invention were also examined for their in vivo effects on brain 5-HIAA and serum corticosterone levels. Male Sprague-Dawley rats weighting 150-200 g were administered subcutaneously or orally with aqueous solutions of the test compound. One hour after treatment, the rats were decapitated and trunk blood collected. The blood was allowed to clot and then was centrifuged to separate the serum. The concentration of corticosterone in the serum was determined by the spectrofluorometric method of Solem, J. H.; Brinck-Johnsen, T., Scand. J. Clin. Invest. [Suppl. 80], 17, 1 (1965). The whole brains from the decapitated rats were quickly removed, frozen on dry ice, and stored at -15° C. 5-HIAA concentrations were measured by liquid chromatography with electrochemical detection as described by Fuller, R. W.; Snoddy, H. D.; Perry, K. W., Life Sci. 40, 1921 (1987).
(§2) The results provided in columns 3-5 are indicative of 5-HT1A agonist activity.

Test [2] deals with T1, 5-HT1A receptors. Nature of the test: in vivo elevation of serum corticosterone levels (5-HT1A agonist activity). As to conditions: sc, one hour after treatment. The procedure:
as §1, §2

The target of test [3] is T1, 5-HT1A receptors. In words: in vitro binding: inhibition of 3H-8-OH-DPAT binding to synaptosomal membranes from rat cerebral cortex. As to conditions: 3H-8-OH-DPAT 2 nM, 37° C., 10 min, pH 7.4.
Text: Sites specifically labeled by tritiated 8-hydroxy-2-dipropylamino-1,2,3,4-tetrahydronaphthalene (^3 H-8-OH-DPAT) have been identified as 5-HT1A receptors. This general procedure is set forth in Wong et al., J. Neural Transm. 71:207-218 (1988).
Male Sprague-Dawley rats (110-150 g) from Harlan Industries (Cumberland, Ind.) were fed a Purina Chow ad libitum for at least 3 days before being used in the studies. Rats were killed by decapitation. The brains were rapidly removed, and the cerebral cortices were dissected out at 4° C.
Brain tissues were homogenized in 0.32M sucrose. After centrifugation at 1000×g for 10 min and then at 17000×g for 20 min, a crude synaptosomal fraction was sedimented. The pellet was suspended in 100 vol of 50 mM Tris-HCl, pH 7.4, incubated at 37° C. for 10 min, and centrifuged at 50000×g for 10 min. The process was repeated and the final pellet was suspended in ice-chilled 50 mM Tris-HCl, pH 7.4.
Binding of ^3 H-8-OH-DPAT was performed according to the previously described method [Wong et al., J. Neural Transm. 64:251-269 (1985)]. Briefly, synaptosomal membranes isolated from cerebral cortex were incubated at 37° C. for 10 min. in 2 ml of 50 mM Tris-HCl, pH 7.4; 10 mM pargyline; 0.6 mM ascorbic acid; 5 mM CaCl2; 2 nM ^3 H-8-OH-DPAT and 0.1 to 1000 nm of the compound of interest. Binding was terminated by filtering samples under reduced pressure through glass fiber (GFB) filters. The filters were washed twice with 5 ml of ice cold buffer and placed in scintillation vials with 10 ml of PCS (Amersham/Searle) scintillation fluid. Radioactivity was measured with a liquid scintillation spectrometer. Unlabeled 8-OH-DPAT at 10 μM was also included in separate samples to establish non-specific binding. Specific binding of ^3 H-8-OH-DPAT is defined as the difference of radioactivity bound in the absence and in the presence of 10 μM unlabeled 8-OH-DPAT.
as §2

Each structure is given as a SMILES string. Bounds are passed on as bounds.

Take `CCCN(CCC)C1CCc2cccc(-c3oncc3OC)c2C1` (stereo not drawn) [Example 31, 2-Di-n-propylamino-8-(4-methoxyisoxazol-5-yl)-1,2,3,4-tetrahydronaphthalene]: the “5-HIAA MED (minimum effective dose lowering brain 5-HIAA levels)” value at 5-HT1A receptors [1] (sc) was 1.0 mg/kg. For the same molecule, the “Corticosterone MED (minimum effective dose elevating serum corticosterone levels)” value (“Corticosterone MED” below) at 5-HT1A receptors [2] is listed as > 1.0 mg/kg.

On to `CCCN(CCC)C1CCc2cccc(-c3nc(-c4ccccc4)no3)c2C1` (stereo not drawn) [Example 34, 2-Di-n-propylamino-8-(3-phenyl-1,2,4-oxadiazol-5-yl)-1,2,3,4-tetrahydronaphthalene], for which the IC50 at 5-HT1A receptors [3] stood at 11 nM.

Take `CCCN(CCC)C1CCc2cccc(-c3nocc3C)c2C1` (stereo not drawn) [Example 26, 2-Di-n-propylamino-8-(4-methylisoxazol-3-yl)-1,2,3,4-tetrahydronaphthalene]: the concentration for half-maximal inhibition (IC50) on 5-HT1A receptors [3] was determined as 6.4 nM. On 5-HT1A receptors [1] (sc), the “5-HIAA MED (minimum effective dose lowering brain 5-HIAA levels)” value worked out at 1.0 mg/kg. Further, on 5-HT1A receptors [2], the “Corticosterone MED” value is recorded as > 1.0 mg/kg.

`CCCN(CCC)C1CCc2cccc(-c3ccn(C)n3)c2C1` (stereo not drawn) [5 (3-yl), 2-Di-n-propylamino-8-(1-methylpyrazol-3-yl)-1,2,3,4-tetrahydronaphthalene] yielded an IC50 at 5-HT1A receptors [3] of 5 nM. In addition, the “5-HIAA MED (minimum effective dose lowering brain 5-HIAA levels)” value at 5-HT1A receptors [1] (sc) is listed as > 1.0 mg/kg. The “Corticosterone MED” value at 5-HT1A receptors [2] is 1.0 mg/kg.

As to `CCCN(CCC)C1CCc2cccc(-c3noc(-c4ccccc4)n3)c2C1` (stereo not drawn) [Example 2, 2-Di-n-propylamine-8-(5-phenyl-1,2,4-oxadiazol-3-yl)-1,2,3,4-tetrahydronaphthalene], on 5-HT1A receptors [3], the IC50 was 36 nM.

On to `CCCN(CCC)C1CCc2cccc(-c3cscn3)c2C1` (stereo not drawn) [Example 11, 2-Di-n-propylamino-8-(thiazol-4-yl)-1,2,3,4-tetrahydronaphthalene], for which the concentration for half-maximal inhibition (IC50) at 5-HT1A receptors [3] amounted to 4.9 nM. Moreover, the “5-HIAA MED (minimum effective dose lowering brain 5-HIAA levels)” value on 5-HT1A receptors [1] (sc) is reported as > 1.0 mg/kg. For the same molecule, the “Corticosterone MED” value at 5-HT1A receptors [2] was > 1.0 mg/kg.

As to `CCCN(CCC)C1CCc2cccc(-c3ccno3)c2C1` (stereo not drawn) [Example 8, 2-Di-n-propylamino-8-(isoxazol-5-yl)-1,2,3,4-tetrahydronaphthalene], the “5-HIAA MED (minimum effective dose lowering brain 5-HIAA levels)” value is reported as 3 mg/kg at 5-HT1A receptors [1] (po) and 0.1 mg/kg on 5-HT1A receptors [1] (sc). The “Corticosterone MED” value at 5-HT1A receptors [2] is 0.3 mg/kg.

In the case of `CCCN(CCC)C1CCc2cccc(-c3oncc3C)c2C1` (stereo not drawn) [Example 21, 2-Di-n-propylamino-8-(4-methylisoxazol-5-yl)-1,2,3,4-tetrahydronaphthalene], the entries for the “5-HIAA MED (minimum effective dose lowering brain 5-HIAA levels)” value on 5-HT1A receptors [1] (po) and on 5-HT1A receptors [1] (sc) were > 10 mg/kg and 0.3 mg/kg, respectively. At 5-HT1A receptors [2], the “Corticosterone MED” value was 1.0 mg/kg.

In the case of `CCCN(CCC)C1CCc2cccc(-c3cc(C)on3)c2C1` (stereo not drawn) [Example 28, 2-Di-n-propylamino-8-(5-methylisoxazol-3-yl)-1,2,3,4-tetrahydronaphthalene], the IC50 at 5-HT1A receptors [3] worked out at 3.8 nM. Further, the “5-HIAA MED (minimum effective dose lowering brain 5-HIAA levels)” value on 5-HT1A receptors [1] (sc) is given as > 1.0 mg/kg. Besides, on 5-HT1A receptors [2], the “Corticosterone MED” value is listed as > 1.0 mg/kg.

As for `CCCN(CCC)C1CCc2cccc(-c3ccncc3)c2C1` (stereo not drawn) [Example 16, 2-Di-n-propylamino-8-(pyrid-4-yl)-1,2,3,4-tetrahydronaphthalene], the IC50 on 5-HT1A receptors [3] worked out at 9.8 nM. Moreover, the “5-HIAA MED (minimum effective dose lowering brain 5-HIAA levels)” value on 5-HT1A receptors [1] (sc) is on record as > 1.0 mg/kg. Moreover, the “Corticosterone MED” value on 5-HT1A receptors [2] is reported as > 1.0 mg/kg.

Take `CCCN(CCC)C1CCc2cccc(-c3cccnc3)c2C1` (stereo not drawn) [Example 14, 2-Di-n-propylamino-8-(pyrid-3-yl)-1,2,3,4-tetrahydronaphthalene]: the half-inhibitory concentration (IC50) at 5-HT1A receptors [3] was determined as 7.2 nM. For the same molecule, at 5-HT1A receptors [1] (sc), the “5-HIAA MED (minimum effective dose lowering brain 5-HIAA levels)” value was > 1.0 mg/kg. Besides, the “Corticosterone MED” value on 5-HT1A receptors [2] is given as > 1.0 mg/kg.

Molecule `CCCN(CCC)C1CCc2cccc(-c3csc(N)n3)c2C1` (stereo not drawn) [Example 10, 2-Di-n-propylamino-8-(2-aminothiazol-4-yl)-1,2,3,4-tetrahydronaphthalene] came in with a half-inhibitory concentration (IC50) on 5-HT1A receptors [3] of 19 nM.

For the molecule `CCCN(CCC)C1CCc2cccc(-c3nccs3)c2C1` (stereo not drawn) [Example 9, 2-Di-n-propylamino-8-(thiazol-2-yl)-1,2,3,4-tetrahydronaphthalene], the IC50 at 5-HT1A receptors [3] was found to be 12 nM. Moreover, on 5-HT1A receptors [1] (sc), the “5-HIAA MED (minimum effective dose lowering brain 5-HIAA levels)” value is on record as > 1.0 mg/kg. For the same molecule, the “Corticosterone MED” value at 5-HT1A receptors [2] is > 1.0 mg/kg.

`CCCN(CCC)C1CCc2cccc(-c3nc(C)no3)c2C1` (stereo not drawn) [Example 35, 2-Di-n-propylamino-8-(3-methyl-1,2,4-oxidiazol-5-yl)-1,2,3,4-tetrahydronaphthalene] yielded a half-maximal inhibitory concentration (IC50) at 5-HT1A receptors [3] of 16 nM. This counts as double-digit nanomolar.

Regarding `CCCN(CCC)C1CCc2cccc(-c3cc(C)no3)c2C1` (stereo not drawn) [Example 23, 2-Di-n-propylamino-8-(3-methylisoxazol-5-yl)-1,2,3,4-tetrahydronaphthalene], the “5-HIAA MED (minimum effective dose lowering brain 5-HIAA levels)” value at 5-HT1A receptors [1] (sc) is recorded as 1.0 mg/kg. The “Corticosterone MED” value on 5-HT1A receptors [2] is recorded as > 1.0 mg/kg.

The molecule `CCCN(CCC)C1CCc2cccc(-c3ccnc(N)n3)c2C1` (stereo not drawn) [Example 32, 2-Di-n-propylamino-8-(2-aminopyrimidin-4-yl)-1,2,3,4-tetrahydronaphthalene] yielded a concentration for half-maximal inhibition (IC50) on 5-HT1A receptors [3] of 67 nM.

Consider `CCCN(CCC)C1CCc2cccc(-c3cc(Br)no3)c2C1` (stereo not drawn) [Example 20, 2-Di-n-propylamino-8-(3-bromoisoxazol-5-yl)-1,2,3,4-tetrahydronaphthalene], for which the “5-HIAA MED (minimum effective dose lowering brain 5-HIAA levels)” value at 5-HT1A receptors [1] (sc) is > 1.0 mg/kg. The “Corticosterone MED” value on 5-HT1A receptors [2] is > 1.0 mg/kg.

`CCCN(CCC)C1CCc2cccc(-c3cnc4ccccc4c3)c2C1` (stereo not drawn) [Example 13, 2-Di-n-propylamino-8-(quinol-3-yl)-1,2,3,4-tetrahydronaphthalene] returned an IC50 on 5-HT1A receptors [3] of 16 nM.

Turning to `CCCN(CCC)C1CCc2cccc(-c3cc(SC)no3)c2C1` (stereo not drawn) [Example 30, 2-Di-n-propylamino-8-(3-methylthioisoxazol-5-yl)-1,2,3,4-tetrahydronaphthalene], on 5-HT1A receptors [1] (sc), the “5-HIAA MED (minimum effective dose lowering brain 5-HIAA levels)” value is reported as > 1.0 mg/kg. Besides, the “Corticosterone MED” value at 5-HT1A receptors [2] was > 1.0 mg/kg.

`CCCN(CCC)C1CCc2cccc(-c3ccc4ccccc4n3)c2C1` (stereo not drawn) [Example 12, 2-Di-n-propylamino-8-(quinol-2-yl)-1,2,3,4-tetrahydronaphthalene] displayed a half-maximal inhibitory concentration (IC50) at 5-HT1A receptors [3] of 87 nM.

`CCCN(CCC)C1CCc2cccc(-c3cc(O)[nH]n3)c2C1` (stereo not drawn) [Example 6, 2-Di-n-propylamino-8-(5-hydroxypyrazol-3-yl)-1,2,3,4-tetrahydronaphthalene] displayed a concentration for half-maximal inhibition (IC50) at 5-HT1A receptors [3] of 62 nM. The IC50 values of the last two molecules are within 1.5-fold of each other.

For the molecule `CCCN(CCC)C1CCc2cccc(-c3ccnn3C)c2C1` (stereo not drawn) [5 (5-yl), 2-Di-n-propylamino-8-(1-methylpyrazol-5-yl)-1,2,3,4-tetrahydronaphthalene], the IC50 at 5-HT1A receptors [3] worked out at 7.2 nM.

With `CCCN(CCC)C1CCc2cccc(-c3ccccn3)c2C1` (stereo not drawn) [Example 15, 2 -Di-n-propylamino-8-(pyrid-2-yl)-1,2,3,4-tetrahydronaphthalene], the half-maximal inhibitory concentration (IC50) on 5-HT1A receptors [3] stood at 33 nM.

The term IC50 denotes the concentration that gives 50% inhibition. The low end stands for greater potency, the high end for weaker potency.
